Results as given in ChEMBL document CHEMBL5543145, “Discovery of the First-in-Class G9a/GLP PROTAC Degrader” (J Med Chem, 2024).
The source made the active and inactive calls.

Assays:
[1] = target: T1, von Hippel-Lindau disease tumor suppressor/Histone-lysine N-methyltransferase EHMT2 (Homo sapiens, UniProt Q96KQ7+P40337); assay: PROTAC activity at G9a/VHL in human 22Rv1 cells assessed as induction of G9a degradation at 0.3 uM incubated for 24 hrs by Western blot analysis relative to control; assay type: cell-based
Target sequence in this assay (P40337 whole entry partner): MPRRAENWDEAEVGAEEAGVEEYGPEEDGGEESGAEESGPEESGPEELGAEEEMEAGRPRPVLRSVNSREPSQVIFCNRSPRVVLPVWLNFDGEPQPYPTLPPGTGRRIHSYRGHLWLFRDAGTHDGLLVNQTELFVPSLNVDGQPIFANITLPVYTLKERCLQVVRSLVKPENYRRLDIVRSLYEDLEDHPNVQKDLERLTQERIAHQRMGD
Target sequence in this assay (Q96KQ7 2-1210 limits assumed): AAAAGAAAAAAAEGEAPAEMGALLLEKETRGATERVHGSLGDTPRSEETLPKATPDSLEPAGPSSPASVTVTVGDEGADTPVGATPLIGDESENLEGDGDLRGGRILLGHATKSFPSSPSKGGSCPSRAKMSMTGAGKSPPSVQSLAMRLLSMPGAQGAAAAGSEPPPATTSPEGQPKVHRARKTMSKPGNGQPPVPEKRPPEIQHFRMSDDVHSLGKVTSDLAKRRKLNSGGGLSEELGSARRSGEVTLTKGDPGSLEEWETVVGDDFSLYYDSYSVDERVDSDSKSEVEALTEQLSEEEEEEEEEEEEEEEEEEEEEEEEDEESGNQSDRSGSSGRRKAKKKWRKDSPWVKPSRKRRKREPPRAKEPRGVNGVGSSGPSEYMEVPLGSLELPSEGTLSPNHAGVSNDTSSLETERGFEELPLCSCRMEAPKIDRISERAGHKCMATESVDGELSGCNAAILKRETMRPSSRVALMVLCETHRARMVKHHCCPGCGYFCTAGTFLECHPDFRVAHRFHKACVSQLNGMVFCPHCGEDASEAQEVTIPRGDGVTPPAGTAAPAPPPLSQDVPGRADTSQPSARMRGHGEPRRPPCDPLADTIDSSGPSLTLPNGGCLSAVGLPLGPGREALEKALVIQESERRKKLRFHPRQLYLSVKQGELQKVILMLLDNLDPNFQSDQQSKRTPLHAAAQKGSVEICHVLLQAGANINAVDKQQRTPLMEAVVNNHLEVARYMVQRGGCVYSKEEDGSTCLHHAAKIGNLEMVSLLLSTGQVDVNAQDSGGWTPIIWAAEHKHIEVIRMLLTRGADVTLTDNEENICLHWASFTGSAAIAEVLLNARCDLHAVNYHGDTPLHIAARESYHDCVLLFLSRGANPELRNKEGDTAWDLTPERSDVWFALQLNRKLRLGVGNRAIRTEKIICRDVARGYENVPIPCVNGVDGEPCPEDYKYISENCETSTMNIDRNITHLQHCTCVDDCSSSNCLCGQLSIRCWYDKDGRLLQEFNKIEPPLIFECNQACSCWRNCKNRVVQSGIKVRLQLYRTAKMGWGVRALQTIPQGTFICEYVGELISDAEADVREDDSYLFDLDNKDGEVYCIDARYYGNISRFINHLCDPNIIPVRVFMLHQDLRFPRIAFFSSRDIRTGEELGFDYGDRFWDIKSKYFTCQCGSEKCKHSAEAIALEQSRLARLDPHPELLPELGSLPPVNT

[2] = target: T1, von Hippel-Lindau disease tumor suppressor/Histone-lysine N-methyltransferase EHMT2; assay: PROTAC activity at G9a/VHL in human 22Rv1 cells assessed as induction of G9a degradation at 3 uM incubated for 24 hrs by Western blot analysis relative to control; assay type: cell-based
Target sequence in this assay (P40337 whole entry partner): as the sequence (P40337 whole entry partner) above
Target sequence in this assay (Q96KQ7 2-1210 limits assumed): as the sequence (Q96KQ7 2-1210 limits assumed) above

[3] = target: T2, von Hippel-Lindau disease tumor suppressor/Histone-lysine N-methyltransferase EHMT1 (Homo sapiens, UniProt Q9H9B1+P40337); assay: PROTAC activity at GLP/VHL in human 22Rv1 cells assessed as induction of GLP degradation at 0.3 uM incubated for 24 hrs by Western blot analysis relative to control; assay type: cell-based
Target sequence in this assay (P40337 whole entry partner): as the sequence (P40337 whole entry partner) above
Target sequence in this assay (Q9H9B1 2-1298 limits assumed): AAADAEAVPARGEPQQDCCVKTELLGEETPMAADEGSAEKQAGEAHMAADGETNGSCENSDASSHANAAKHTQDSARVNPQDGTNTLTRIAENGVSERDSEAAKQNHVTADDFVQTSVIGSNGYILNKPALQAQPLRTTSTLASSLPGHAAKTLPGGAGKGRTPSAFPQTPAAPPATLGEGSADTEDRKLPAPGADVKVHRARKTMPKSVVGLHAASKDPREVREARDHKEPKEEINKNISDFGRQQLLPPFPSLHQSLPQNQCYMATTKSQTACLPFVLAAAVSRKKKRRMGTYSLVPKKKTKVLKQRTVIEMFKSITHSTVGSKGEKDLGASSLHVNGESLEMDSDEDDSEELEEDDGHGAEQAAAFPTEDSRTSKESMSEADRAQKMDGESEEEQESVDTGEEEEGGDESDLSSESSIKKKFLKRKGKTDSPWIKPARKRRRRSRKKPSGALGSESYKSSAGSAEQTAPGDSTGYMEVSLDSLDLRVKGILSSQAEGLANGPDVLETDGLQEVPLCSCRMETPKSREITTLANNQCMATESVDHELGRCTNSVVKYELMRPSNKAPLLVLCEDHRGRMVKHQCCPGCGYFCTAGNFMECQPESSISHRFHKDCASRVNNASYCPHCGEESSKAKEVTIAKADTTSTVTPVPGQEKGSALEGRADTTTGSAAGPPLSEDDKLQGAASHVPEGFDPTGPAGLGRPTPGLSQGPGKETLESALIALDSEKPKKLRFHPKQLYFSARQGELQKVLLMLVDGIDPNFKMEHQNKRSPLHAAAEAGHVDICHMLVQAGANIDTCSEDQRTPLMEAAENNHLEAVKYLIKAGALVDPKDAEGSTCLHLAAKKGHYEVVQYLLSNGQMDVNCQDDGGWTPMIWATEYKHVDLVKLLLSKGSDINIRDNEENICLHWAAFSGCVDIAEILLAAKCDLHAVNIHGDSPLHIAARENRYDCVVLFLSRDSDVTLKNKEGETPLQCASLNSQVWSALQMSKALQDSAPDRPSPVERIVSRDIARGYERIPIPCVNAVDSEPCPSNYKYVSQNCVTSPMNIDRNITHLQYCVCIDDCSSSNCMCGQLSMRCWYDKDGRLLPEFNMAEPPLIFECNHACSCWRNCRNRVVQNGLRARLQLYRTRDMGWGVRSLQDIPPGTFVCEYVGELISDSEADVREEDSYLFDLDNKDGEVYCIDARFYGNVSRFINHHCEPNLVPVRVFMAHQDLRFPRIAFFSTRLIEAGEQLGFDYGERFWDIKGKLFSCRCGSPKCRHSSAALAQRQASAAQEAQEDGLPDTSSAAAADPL

[4] = target: T2, von Hippel-Lindau disease tumor suppressor/Histone-lysine N-methyltransferase EHMT1; assay: PROTAC activity at GLP/VHL in human 22Rv1 cells assessed as induction of GLP degradation at 3 uM incubated for 24 hrs by Western blot analysis relative to control; assay type: cell-based
Target sequence in this assay (P40337 whole entry partner): as the sequence (P40337 whole entry partner) above
Target sequence in this assay (Q9H9B1 2-1298 limits assumed): as the sequence (Q9H9B1 2-1298 limits assumed) above

[5] = target: T1, von Hippel-Lindau disease tumor suppressor/Histone-lysine N-methyltransferase EHMT2; assay: PROTAC activity at G9a/VHL in human 22Rv1 cells assessed as induction of G9a degradation at 1 uM incubated for 24 hrs by Western blot analysis; assay type: cell-based
Target sequence in this assay (P40337 whole entry partner): as the sequence (P40337 whole entry partner) above
Target sequence in this assay (Q96KQ7 2-1210 limits assumed): as the sequence (Q96KQ7 2-1210 limits assumed) above

[6] = target: T2, von Hippel-Lindau disease tumor suppressor/Histone-lysine N-methyltransferase EHMT1; assay: PROTAC activity at GLP/VHL in human 22Rv1 cells assessed as induction of GLP degradation at 1 uM incubated for 24 hrs by Western blot analysis; assay type: cell-based
Target sequence in this assay (P40337 whole entry partner): as the sequence (P40337 whole entry partner) above
Target sequence in this assay (Q9H9B1 2-1298 limits assumed): as the sequence (Q9H9B1 2-1298 limits assumed) above

[7] = test system: CWR22R; assay: Cytotoxicity against human 22Rv1 cells assessed as growth inhibition measured for 7 days; assay type: functional; conditions: 22Rv1, 168 h, time 7 day
[8] = test system: PNT2; assay: Cytotoxicity against human PNT2 cells assessed as growth inhibition measured for 5 days; assay type: toxicity, cell-based; conditions: pnt2, 120 h, time 5 day
[9] = target: T1, von Hippel-Lindau disease tumor suppressor/Histone-lysine N-methyltransferase EHMT2; assay: PROTAC activity at G9a/VHL in human 22Rv1 cells assessed as induction of G9a degradation incubated for 24 hrs by Western blot analysis; assay type: cell-based
[10] = target: T2, von Hippel-Lindau disease tumor suppressor/Histone-lysine N-methyltransferase EHMT1; assay: PROTAC activity at GLP/VHL in human 22Rv1 cells assessed as induction of GLP degradation incubated for 24 hrs by Western blot analysis; assay type: cell-based
[11] = target: T2, von Hippel-Lindau disease tumor suppressor/Histone-lysine N-methyltransferase EHMT1; assay: PROTAC activity at GLP/VHL in human 22Rv1 cells assessed as induction of GLP degradation at 3 uM by Western blot analysis; assay type: cell-based; conditions: time <= 48.0 hrs, TDE = time-dependent effect
Target sequence in this assay (P40337 whole entry partner): as the sequence (P40337 whole entry partner) above
Target sequence in this assay (Q9H9B1 2-1298 limits assumed): as the sequence (Q9H9B1 2-1298 limits assumed) above

[12] = target: T2, von Hippel-Lindau disease tumor suppressor/Histone-lysine N-methyltransferase EHMT1; assay: PROTAC activity at GLP/VHL in human 22Rv1 cells assessed as induction of GLP degradation at 3 uM measured at 24 to 48 hrs by Western blot analysis; assay type: cell-based; conditions: time 24-48 hrs
Target sequence in this assay (P40337 whole entry partner): as the sequence (P40337 whole entry partner) above
Target sequence in this assay (Q9H9B1 2-1298 limits assumed): as the sequence (Q9H9B1 2-1298 limits assumed) above

[13] = target: T2, von Hippel-Lindau disease tumor suppressor/Histone-lysine N-methyltransferase EHMT1; assay: PROTAC activity at GLP/VHL in human 22Rv1 cells assessed as effect on GLP level upto 3 uM measured for 24 hrs by Western blot analysis; assay type: cell-based
Target sequence in this assay (P40337 whole entry partner): as the sequence (P40337 whole entry partner) above
Target sequence in this assay (Q9H9B1 2-1298 limits assumed): as the sequence (Q9H9B1 2-1298 limits assumed) above

[14] = test system: CWR22R; assay: Inhibition of colony formation in human 22Rv1 cells upto 3 uM incubated for 8 days by ethyl violet staining based analysis; assay type: functional, cell-based; conditions: time 8.0 day
[15] = target: T1, von Hippel-Lindau disease tumor suppressor/Histone-lysine N-methyltransferase EHMT2; assay: PROTAC activity at G9a/VHL in human 22Rv1 cells assessed as induction of G9a degradation at 1 uM pretreated with VHL-1 for 2 hrs followed by compound administration and measured after 24 hrs by Western blot analysis; assay type: cell-based
Target sequence in this assay (P40337 whole entry partner): as the sequence (P40337 whole entry partner) above
Target sequence in this assay (Q96KQ7 2-1210 limits assumed): as the sequence (Q96KQ7 2-1210 limits assumed) above

[16] = target: T2, von Hippel-Lindau disease tumor suppressor/Histone-lysine N-methyltransferase EHMT1; assay: PROTAC activity at GLP/VHL in human 22Rv1 cells assessed as induction of GLP degradation at 1 uM pretreated with VHL-1 for 2 hrs followed by compound administration and measured after 24 hrs by Western blot analysis; assay type: cell-based
[17] = target: T1, von Hippel-Lindau disease tumor suppressor/Histone-lysine N-methyltransferase EHMT2; assay: PROTAC activity at G9a/VHL in human 22Rv1 cells assessed as effect on G9a level at 3 uM incubated for 24 hrs by RT-qPCR analysis; assay type: cell-based
Target sequence in this assay (P40337 whole entry partner): as the sequence (P40337 whole entry partner) above
Target sequence in this assay (Q96KQ7 2-1210 limits assumed): as the sequence (Q96KQ7 2-1210 limits assumed) above

[18] = target: T2, von Hippel-Lindau disease tumor suppressor/Histone-lysine N-methyltransferase EHMT1; assay: PROTAC activity at GLP/VHL in human 22Rv1 cells assessed as effect on VHL level at 3 uM incubated for 24 hrs by RT-qPCR analysis; assay type: cell-based
[19] = target: Histone-lysine N-methyltransferase, H3 lysine-79 specific (Homo sapiens) (UniProt Q8TEK3); assay: Inhibition of DOT1L (unknown origin) at 10 uM relative to control
[20] = target: Histone-lysine N-methyltransferase, H3 lysine-36 specific (Homo sapiens) (UniProt Q96L73); assay: Inhibition of NSD1 (unknown origin) at 10 uM relative to control
[21] = target: Histone-lysine N-methyltransferase NSD2 (Homo sapiens) (UniProt O96028); assay: Inhibition of NSD2 (unknown origin) at 10 uM relative to control
[22] = target: Histone-lysine N-methyltransferase NSD3 (Homo sapiens) (UniProt Q9BZ95); assay: Inhibition of NSD3 (unknown origin) at 10 uM relative to control
[23] = target: Protein arginine N-methyltransferase 3 (Homo sapiens) (UniProt O60678); assay: Inhibition of PRMT3 (unknown origin) at 10 uM relative to control
[24] = target: Histone-arginine methyltransferase CARM1 (Homo sapiens) (UniProt Q86X55); assay: Inhibition of PRMT4 (unknown origin) at 10 uM relative to control
[25] = target: Protein arginine N-methyltransferase 6 (Homo sapiens) (UniProt Q96LA8); assay: Inhibition of PRMT6 (unknown origin) at 10 uM relative to control
Sequence of Protein arginine N-methyltransferase 6 (Homo sapiens) (Q96LA8 whole entry, looked up): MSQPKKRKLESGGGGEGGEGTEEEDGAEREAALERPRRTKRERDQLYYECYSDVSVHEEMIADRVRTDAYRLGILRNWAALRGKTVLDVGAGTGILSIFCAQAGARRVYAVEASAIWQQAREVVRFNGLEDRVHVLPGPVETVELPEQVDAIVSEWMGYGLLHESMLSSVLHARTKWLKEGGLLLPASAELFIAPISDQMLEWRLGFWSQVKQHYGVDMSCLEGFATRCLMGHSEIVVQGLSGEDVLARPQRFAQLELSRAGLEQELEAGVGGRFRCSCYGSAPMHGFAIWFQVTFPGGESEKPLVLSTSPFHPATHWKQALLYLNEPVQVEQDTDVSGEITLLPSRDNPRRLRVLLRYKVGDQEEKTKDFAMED

[26] = target: Protein arginine N-methyltransferase 7 (Homo sapiens) (UniProt Q9NVM4); assay: Inhibition of PRMT7 (unknown origin) at 10 uM relative to control
[27] = target: Protein arginine N-methyltransferase 8 (Homo sapiens) (UniProt Q9NR22); assay: Inhibition of PRMT8 (unknown origin) at 10 uM relative to control
[28] = target: Histone-lysine N-methyltransferase SETD7 (Homo sapiens) (UniProt Q8WTS6); assay: Inhibition of SET7/9 (unknown origin) at 10 uM relative to control
Sequence of Histone-lysine N-methyltransferase SETD7 (Homo sapiens) (Q8WTS6 whole entry): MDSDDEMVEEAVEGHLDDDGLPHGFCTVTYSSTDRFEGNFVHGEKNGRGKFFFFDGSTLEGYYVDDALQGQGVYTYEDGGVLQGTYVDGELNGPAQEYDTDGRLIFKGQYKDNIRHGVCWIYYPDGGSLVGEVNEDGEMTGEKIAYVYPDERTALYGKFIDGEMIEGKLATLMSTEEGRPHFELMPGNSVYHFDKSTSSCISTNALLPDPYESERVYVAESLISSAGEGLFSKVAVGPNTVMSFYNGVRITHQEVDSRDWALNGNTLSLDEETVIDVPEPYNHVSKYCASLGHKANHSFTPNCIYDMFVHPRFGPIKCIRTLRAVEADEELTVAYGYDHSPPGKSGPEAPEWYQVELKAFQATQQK

[29] = target: Histone-lysine N-methyltransferase SUV39H1 (Homo sapiens) (UniProt O43463); assay: Inhibition of SUV39H1 (unknown origin) at 10 uM relative to control
Sequence of Histone-lysine N-methyltransferase SUV39H1 (Homo sapiens) (O43463 whole entry): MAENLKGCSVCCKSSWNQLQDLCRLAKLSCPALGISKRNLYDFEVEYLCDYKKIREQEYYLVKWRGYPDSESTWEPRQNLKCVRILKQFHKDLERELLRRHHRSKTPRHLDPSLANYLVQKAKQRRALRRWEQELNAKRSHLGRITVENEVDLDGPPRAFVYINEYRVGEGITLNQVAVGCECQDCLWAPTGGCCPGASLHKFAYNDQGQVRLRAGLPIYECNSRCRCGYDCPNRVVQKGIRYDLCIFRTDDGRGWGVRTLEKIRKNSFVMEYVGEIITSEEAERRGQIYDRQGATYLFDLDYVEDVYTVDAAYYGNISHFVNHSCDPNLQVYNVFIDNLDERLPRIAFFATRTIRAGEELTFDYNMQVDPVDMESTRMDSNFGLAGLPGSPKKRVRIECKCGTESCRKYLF

[30] = target: Histone-lysine N-methyltransferase SUV39H2 (Homo sapiens) (UniProt Q9H5I1); assay: Inhibition of SUV39H2 (unknown origin) at 10 uM relative to control
[31] = test system: CWR22R; assay: Effect on EZH2 level in human 22Rv1 cells at 3 uM incubated for 24 hrs by Western blot analysis; assay type: functional, cell-based
[32] = test system: CWR22R; assay: Effect on PRMT7 level in human 22Rv1 cells at 3 uM incubated for 24 hrs by Western blot analysis; assay type: functional, cell-based
[33] = test system: CWR22R; assay: Effect on SET7/9 level in human 22Rv1 cells at 3 uM incubated for 24 hrs by Western blot analysis; assay type: functional, cell-based
[34] = test system: K562; assay: Cytotoxicity against human K562 cells assessed as growth inhibition incubated for 7 days; assay type: functional; conditions: K562, 168 h, time 7 day
[35] = target: T1, von Hippel-Lindau disease tumor suppressor/Histone-lysine N-methyltransferase EHMT2; assay: PROTAC activity at G9a/VHL in human NCI-H1299 cells assessed as induction of G9a degradation at 3 uM incubated for 24 hrs by Western blot analysis; assay type: cell-based
Target sequence in this assay (P40337 whole entry partner): as the sequence (P40337 whole entry partner) above
Target sequence in this assay (Q96KQ7 2-1210 limits assumed): as the sequence (Q96KQ7 2-1210 limits assumed) above

[36] = target: T2, von Hippel-Lindau disease tumor suppressor/Histone-lysine N-methyltransferase EHMT1; assay: PROTAC activity at GLP/VHL in human NCI-H1299 cells assessed as induction of GLP degradation at 3 uM incubated for 24 hrs by Western blot analysis; assay type: cell-based
[37] = Cmax in C57BL6 mouse plasma at 50 mg/kg, ip measured at 0.5 hrs by LC-MS/MS analysis; assay type: ADME, organism-based

COc1cc2c(NC3CCN(CCCC(=O)NCCCCCCCCCCCC(=O)N[C@H](C(=O)N4C[C@H](O)C[C@H]4C(=O)NCc4ccc(-c5scnc5C)cc4)C(C)(C)C)CC3)nc(N3CCC(F)(F)CC3)nc2cc1OCCCN1CCCC1
27 µM: Cmax [37]
274 nM: DC50 [9]
49%: Emax [3]
4100 nM: GI50 [7]
260 nM: DC50 [10]
2000 nM: GI50 [34]
100%: Activity [12]
> 99%: Emax [2] | Emax [4]
Non-Toxic: Activity [8]
> 50%: inhibition [19] | inhibition [20] | inhibition [21] | inhibition [22] | inhibition [23] | inhibition [24] | inhibition [25] | inhibition [26] | inhibition [27] | inhibition [28] | inhibition [29] | inhibition [30]
73%: Emax [1]
active: Activity [5] | Activity [6] | Activity [11] Tde | Activity [13] | inhibition [14] | Activity [15] | Activity [16] | Activity [17] | Activity [18] | Activity [31] | Activity [32] | Activity [33] | Activity [35] | Activity [36]
